Measurements as given in patent US20240264164A1, “DETERGENTS AND METHODS” (OXFORD UNIVERSITY INNOVATION LIMITED, priority 2021, published 2024).

Experiments:
membrane protein AqpZ [1] = biological target: T1, membrane protein AqpZ (Escherichia coli, UniProt P60844); assay: nano-electrospray ionization mass spectrometry of AqpZ in detergent (FIG. 9); parameters: made in house; host or cells: bacterial culture (LB broth, ampicillin); conditions: nESI, Q Exactive
Protocol: The samples were analysed using a Q-Exactive mass spectrometer using the following instrumental parameters: • Injection flatapole: 7.9 V • Inter flatapole lens: 6.9 V • Bent flatapole: 5.9 V • Transfer multipole: 4 V • Capillary voltage: 1.2 kV • Source temperature: 100° C. • Voltage applied to the C-trap entrance lens: 5.8 V • In-source trapping voltage: 0-200 V • Higher-energy collisional dissociation (HCD) cell voltage: 100-200 V • HCD cell pressure: 9×10^−10 mBar • Noise level parameter: 3 • Microscans: 10 • Resolution: 17,500
The suitability of the hybrid detergent in nano-electrospray ionization was investigated using a Q Exactive mass spectrometer. The results are shown in FIG. 9, along with results obtained using DDM and C8E4.

membrane protein AqpZ [2] = biological target: T1, membrane protein AqpZ; assay: Stability of AqpZ in detergent solution after extraction from native membrane and IMAC; parameters: made in house; conditions: extraction with 1% w/v detergent solution, IMAC purification
Protocol: Different solutions of the membrane protein AqpZ were prepared by extracting the protein from its native membrane using a 1% w/v detergent solution and then purifying the samples using IMAC. The following solutions were prepared: one containing the hybrid detergent, one containing DDM, one containing C8E4 and one containing a mixture of C8E4 and DDM. AgpZ precipitated from the solutions containing C8E4, even when DDM was also present.

T1 sequence (P60844 whole entry): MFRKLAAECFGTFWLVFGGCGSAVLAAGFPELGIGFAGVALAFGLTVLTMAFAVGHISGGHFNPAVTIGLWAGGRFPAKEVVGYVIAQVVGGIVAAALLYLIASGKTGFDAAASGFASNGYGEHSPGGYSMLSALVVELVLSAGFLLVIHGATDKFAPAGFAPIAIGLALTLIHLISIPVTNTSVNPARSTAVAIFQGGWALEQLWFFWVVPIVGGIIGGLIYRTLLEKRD

Compound | lipid-bound states of AqpZ detected (membrane protein AqpZ [1]) | stability of AqpZ in detergent solution (membrane protein AqpZ [2]) | level of delipidation of AqpZ (membrane protein AqpZ [1])
CCCCCCCCCCCCOCC(COCCOCCOCCOCCO)Oc1ccc(OCCOC2OC(CO)C(C3OC(CO)C(O)C(O)C3O)C(O)C2O)cc1 (stereo not drawn) | detected | stable | 
CCCCCCCCOCCOCCOCCOCCO [C8E4, tetraethylene glycol monooctyl ether] |  | precipitated | fully delipidating
CCCCCCCCCCCCO[C@@H]1O[C@H](CO)[C@@H](O[C@H]2O[C@H](CO)[C@@H](O)[C@H](O)[C@H]2O)[C@H](O)[C@H]1O [DDM, n-dodecyl-β-D-maltoside] | detected |  | relatively low levels of delipidation
